# Experimental data published in article PMC8213057, “Targeting ALK2: An Open Science Approach to Developing Therapeutics for the Treatment of Diffuse Intrinsic Pontine Glioma” (Journal of Medicinal Chemistry, 2020).
# Experiments:
# PKCmu/PRKD1 = target: T1, PKCmu/PRKD1 (Homo sapiens, UniProt Q15139); assay: biochemical; settings: read-out: % enzyme activity, 1 μM; Run 1, Run 2
# T1 sequence (Q15139 1-912): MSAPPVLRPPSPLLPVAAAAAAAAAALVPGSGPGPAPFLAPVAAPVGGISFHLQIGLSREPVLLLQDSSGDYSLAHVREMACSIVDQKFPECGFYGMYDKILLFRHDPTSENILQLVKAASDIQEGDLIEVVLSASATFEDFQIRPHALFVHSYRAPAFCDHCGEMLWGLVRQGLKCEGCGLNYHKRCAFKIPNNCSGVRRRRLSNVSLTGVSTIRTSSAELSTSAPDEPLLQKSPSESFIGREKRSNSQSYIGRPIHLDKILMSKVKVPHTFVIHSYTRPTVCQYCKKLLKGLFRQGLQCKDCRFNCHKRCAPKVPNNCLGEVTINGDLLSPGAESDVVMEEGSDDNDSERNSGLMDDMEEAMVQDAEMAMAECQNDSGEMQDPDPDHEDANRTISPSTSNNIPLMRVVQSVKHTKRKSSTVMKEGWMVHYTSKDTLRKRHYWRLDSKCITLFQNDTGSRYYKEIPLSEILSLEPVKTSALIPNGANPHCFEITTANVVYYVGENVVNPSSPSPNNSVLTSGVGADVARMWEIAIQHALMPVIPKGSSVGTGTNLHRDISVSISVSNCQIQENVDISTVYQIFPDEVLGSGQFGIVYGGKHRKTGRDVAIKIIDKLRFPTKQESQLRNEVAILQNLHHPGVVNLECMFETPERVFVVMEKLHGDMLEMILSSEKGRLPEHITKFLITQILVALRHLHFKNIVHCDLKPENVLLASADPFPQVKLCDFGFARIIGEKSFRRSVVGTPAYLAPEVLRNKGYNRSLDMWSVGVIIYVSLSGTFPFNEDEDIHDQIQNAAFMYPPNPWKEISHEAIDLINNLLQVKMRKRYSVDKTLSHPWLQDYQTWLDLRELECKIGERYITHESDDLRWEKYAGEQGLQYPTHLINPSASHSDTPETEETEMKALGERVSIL
# MYLK4 = target: T2, MYLK4 (Homo sapiens, UniProt Q86YV6); settings: 1 μM; Run 1, Run 2
# T2 sequence (Q86YV6 1-388): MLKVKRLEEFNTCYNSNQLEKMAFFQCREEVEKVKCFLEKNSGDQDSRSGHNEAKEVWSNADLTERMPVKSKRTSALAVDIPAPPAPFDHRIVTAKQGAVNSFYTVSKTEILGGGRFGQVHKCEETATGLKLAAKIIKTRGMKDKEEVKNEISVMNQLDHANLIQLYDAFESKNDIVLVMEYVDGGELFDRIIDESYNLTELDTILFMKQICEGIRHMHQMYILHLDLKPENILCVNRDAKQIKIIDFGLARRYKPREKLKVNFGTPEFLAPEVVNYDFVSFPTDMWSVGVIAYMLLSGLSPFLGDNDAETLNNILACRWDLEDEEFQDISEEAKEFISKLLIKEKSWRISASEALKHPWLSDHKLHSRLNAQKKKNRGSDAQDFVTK
# CHK1 = target: T3, CHK1 (Homo sapiens, UniProt O14757); assay: biochemical; settings: read-out: % enzyme activity, 1 μM; Run 1, Run 2
# T3 sequence (O14757 1-476): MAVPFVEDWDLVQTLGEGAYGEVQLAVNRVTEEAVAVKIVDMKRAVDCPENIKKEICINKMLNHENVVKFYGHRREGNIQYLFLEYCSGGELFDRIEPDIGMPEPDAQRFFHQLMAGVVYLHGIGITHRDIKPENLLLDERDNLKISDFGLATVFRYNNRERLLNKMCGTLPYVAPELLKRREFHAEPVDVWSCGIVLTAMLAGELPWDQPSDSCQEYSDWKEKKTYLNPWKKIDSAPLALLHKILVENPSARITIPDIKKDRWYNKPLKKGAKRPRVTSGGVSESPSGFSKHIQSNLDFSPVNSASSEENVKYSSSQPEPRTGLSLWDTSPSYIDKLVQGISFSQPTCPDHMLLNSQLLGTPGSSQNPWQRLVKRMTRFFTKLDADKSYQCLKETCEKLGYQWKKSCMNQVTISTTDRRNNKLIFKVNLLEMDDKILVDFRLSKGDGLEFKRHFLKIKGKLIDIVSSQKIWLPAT
# MST1/STK4 = target: T4, MST1/STK4 (Homo sapiens, UniProt Q13043); settings: 1 μM; Run 1, Run 2
# T4 sequence (Q13043 1-487): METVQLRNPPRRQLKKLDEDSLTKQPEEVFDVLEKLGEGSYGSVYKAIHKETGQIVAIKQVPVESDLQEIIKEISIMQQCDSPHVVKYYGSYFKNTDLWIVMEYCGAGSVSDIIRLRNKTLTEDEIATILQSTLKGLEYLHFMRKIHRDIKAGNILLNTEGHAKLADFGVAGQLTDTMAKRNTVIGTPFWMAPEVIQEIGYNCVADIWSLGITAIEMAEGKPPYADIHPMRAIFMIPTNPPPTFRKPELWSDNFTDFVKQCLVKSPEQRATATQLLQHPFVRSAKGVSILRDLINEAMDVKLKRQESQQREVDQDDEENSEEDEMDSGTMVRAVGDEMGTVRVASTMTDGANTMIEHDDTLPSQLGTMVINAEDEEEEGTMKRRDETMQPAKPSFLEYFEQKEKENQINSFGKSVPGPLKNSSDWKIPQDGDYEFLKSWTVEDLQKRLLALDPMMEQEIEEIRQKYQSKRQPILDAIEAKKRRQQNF
Structure (SMILES),remaining activity at 1 µM (PKCmu/PRKD1),% enzyme activity (MYLK4),remaining activity at 1 µM (CHK1),% enzyme activity (MST1/STK4)
"COc1cc(-c2cncc(-c3ccc(N4CCN(C)CC4)cc3)c2C)cc(F)c1C(N)=O [Compound 26a, 2-Fluoro-6-methoxy-4-(4-methyl-5-(4-(4-methylpiperazin-1-yl)phenyl)pyridin-3-yl)benzamide]",90.1%,95.79%,98.2%,100.26%
"COc1cc(-c2cncc(-c3ccc(N4C[C@@H](C)N(C)[C@@H](C)C4)cc3)c2C)cc(F)c1C(N)=O [Compound 26c, 2-Fluoro-6-methoxy-4-(4-methyl-5-(4-((3R,5S)-3,4,5-trimethylpiperazin-1-yl)phenyl)pyridin-3-yl)benzamide]",97.6%,102.67%,117%,101.65%
